This is an account of results in PMC11611271, “Rapid prediction of key residues for foldability by machine learning model enables the design of highly functional libraries with hyperstable constrained peptide scaffolds” (PLOS Computational Biology, 2024).

The subject of one assay is VEGF. The assay can be described thus: phage spot ELISA on VEGF. Conditions: for S/N: phage spot ELISA signal/noise; for S/N / ELISA: S3 Table sheet VEGF; for ELISA: phage spot ELISA signal. It counts as binding. The text has this: (§1) To determine the performance of the libraries for ligand discovery we chose a panel of eight protein targets, which have no structural homology and a wide mass range (Fig 7C). We screened these eight targets with solution panning strategy and two additional plate panning for CD8α/β and CD28, thus ten panning campaigns in total. We consider clones showing spot phage ELISA signal > 0.3 and signal/noise ratio > 2 as positive hits. At least one binding hit was discovered for nine out of the ten panning campaigns, surpassing the success rate of the best DCP scaffolds reported previously. We also obtained the NGS data for these screening and the ranking of clones for their enrichment along the rounds of screening was analyzed and considered the top-ranking clones as potential hits. Based on their sequence diversity we selected 16 potential hits spanning five protein targets for peptide synthesis in their linear form. Seven of these are hits with positive phage ELISA signal and nine were selected based on NGS ranking without spot ELISA available. Subsequently, we conducted in vitro folding experiments on these peptides in various buffers. We observed a strong propensity for spontaneous folding regardless of the buffer condition. All HCP hits tested successfully folded into three-disulfide-containing product within two days in a universal buffer system (PBS, pH 7.4, 50% DMSO) without the need for a redox pair, as shown in Fig 8A. The binding of these folded peptides to their respective target proteins was confirmed using SPR (Table 4 and S1 Data) and binding kinetics are exemplified by the high-affinity peptide 5ji4-CRD7-2 (see Fig 8B). Among seven selected ELISA-positive hits, all of them were successfully synthesized and in vitro folded with three disulfide bonds and five were proven to be validated binders by SPR (Table 4). Nine peptides selected from the NGS ranking were synthesized and folded with the expected number of disulfide bonds and five of them bound to their target with affinities in the μM range as determined by SPR (Table 4). In general, binding affinities for these SPR-validated initial hits are weak, with Kd values in the micromolar range and fast on- and off-rates. There are two exceptions with binding affinities in the nanomolar range.
(§2) The 5ji4 libraries were constructed following the Kunkel mutagenesis method and the solution panning protocol was followed as previously described. After four to five rounds of binding selection, while eluted pool was subjected to NGS analysis, individual phage clones were also picked and analyzed with phage spot ELISA. Positive clones were subjected to SANGER sequencing.
A general note: ELISA stands for enzyme-linked immunosorbent assay.

The test system of the next assay is CD28. Put plainly: phage spot ELISA on CD28. It counts as binding. As to conditions: S3 Table sheet CD28-1 (panning campaign 1); for S/N: phage spot ELISA signal/noise; for ELISA: phage spot ELISA signal.
Excerpt: as §1, §2

Where a SMILES comes first, the peptide text is derived from it. Bridges are numbered along the chain shown (N, C = ends).

`CC(C)C[C@@H]1NC(=O)[C@H](CCCNC(=N)N)NC(=O)[C@H](CCCCN)NC(=O)[C@@H]2CSSC[C@H](NC(=O)[C@H](CCC(=O)O)NC(=O)[C@@H](NC(=O)[C@@H]3CCCN3)CSSC[C@@H](C(=O)NCC(=O)O)NC(=O)[C@H](Cc3c[nH]cn3)NC(=O)[C@H](C(C)C)NC(=O)[C@H](CCCNC(=N)N)NC(=O)[C@@H]3CSSC[C@H](NC1=O)C(=O)N[C@@H](Cc1c[nH]c4ccccc14)C(=O)NCC(=O)N[C@@H](Cc1ccccc1)C(=O)NCC(=O)N[C@@H](CCC(N)=O)C(=O)N[C@@H](CO)C(=O)N[C@@H](CC(=O)O)C(=O)N3)C(=O)N[C@@H](CC(=O)O)C(=O)N[C@@H](C(C)C)C(=O)N[C@@H](CC(N)=O)C(=O)N[C@@H](C(C)C)C(=O)N[C@@H](CCC(=O)O)C(=O)N[C@@H]([C@@H](C)O)C(=O)N[C@@H](Cc1ccc(O)cc1)C(=O)N[C@@H]([C@@H](C)O)C(=O)N[C@@H](C(C)C)C(=O)N[C@@H](CO)C(=O)N[C@@H](CO)C(=O)N[C@@H](CO)C(=O)N[C@@H](CCC(=O)O)C(=O)N[C@@H](CCC(=O)O)C(=O)N2` [5ji4-VEGF-3] (H-PCECDVNVETYTVSSSEECKRLCWGFGQSDCRVHCG-OH; disulfide 2-35, 4-19, 23-31): in the assay on VEGF (phage spot ELISA of the clone, positive hit: signal > 0.3 and signal/noise > 2), the ELISA signal was determined as 3.07. Moreover, the ELISA s/n with VEGF (phage spot ELISA signal/noise ratio) worked out at 32.18.
In the case of “LECSHLQMFVIYNSSEECERLCRKLGVTSCRVHCG [CD28-1 clone 10, phage clone, 5JI4 library, CD28-1 panning]”, in the assay with CD28, the S/N amounted to 2.405 and the ELISA came out at 0.202.
Take “PANAVIRTWIIFASSEECERLCRKLGVTNCRVHCG [CD28-1 clone 5, phage clone, 5JI4 library, CD28-1 panning]”: in the assay with CD28, the S/N is given as 3.189 and the ELISA was 0.3.
Taken in the same sequence, the figures for “PCECDHMQYFILYESSEECERLCRKLGVTNCRVHCG [CD28-1 clone 7, phage clone, 5JI4 library, CD28-1 panning]” were 2.516 and 0.234.
For “PCECDVNGETYTVSSSEECERPCSWNEAFSCRVHCG [CD28-1 clone 15, phage clone, 5JI4 library, CD28-1 panning]”, in that order: 2.576 and 0.219.
For “PCECDVNGETYTVSSSEGCERLCSWDQGKWCRVHCG [CD28-1 clone 13, phage clone, 5JI4 library, CD28-1 panning]”, in that order: 2.33 and 0.247.
In the assay on CD28, “PCECDVNGETYTVSSSEGCERLCSWDTRRMCRVHCG [CD28-1 clone 14, phage clone, 5JI4 library, CD28-1 panning]” had a S/N of 2.852 and an ELISA of 0.231.
In the assay on VEGF, “PCECDVNVETYTVSSSEECKRLCWGFGQSDCRVHCG [VEGF clone 26, phage clone, 5JI4 library, VEGF panning]” registered a S/N of 30.2373 and an ELISA of 3.568.
Taken in the same sequence, the figures for “PCECFFNAVKVGWSSSEECERLCRKLGVTNCRVHCG [VEGF clone 13, phage clone, 5JI4 library, VEGF panning]” were 35.8857 and 3.768.
For “PCECFILGMAVGQSSSEECERLCRKLGVTNCRVHCG [VEGF clone 23, phage clone, 5JI4 library, VEGF panning]”, in that order: 29.8545 and 3.284.
Taken in the same sequence, the figures for “PCECFMMEVKVGTGSSEECERLCRKLGVTNCRVHCG [VEGF clone 14, phage clone, 5JI4 library, VEGF panning]” were 42.5632 and 3.703.
As to “PCECFMYDILVGLASSEECERLCRKLGVTNCRVHCG [VEGF clone 2, phage clone, 5JI4 library, VEGF panning]”, in the assay on VEGF, the S/N is given as 30.9 and the ELISA is listed as 6.00.
For “PCECFMYGVYVGHSSSEACERLCRKLGVTNCRVHCG [VEGF clone 9, phage clone, 5JI4 library, VEGF panning]”, in that order: 39.95 and 3.995.
Taken in the same sequence, the figures for “PCECHFXGVHVGRSSSEECERLCRKLGVTNCRVHCG [VEGF clone 12, phage clone, 5JI4 library, VEGF panning]” were 15.0395 and 3.805.
For “PCECIILNVVVGESSSEECERLCRKLGVTNCRVHCG [VEGF clone 4, phage clone, 5JI4 library, VEGF panning]”, in that order: 2.9 and 4.32.
In the assay with VEGF, “PCECITKWSDWGFSSSEECERLCRKLGVTNCRVHCG [VEGF clone 24, phage clone, 5JI4 library, VEGF panning]” returned a S/N of 9.024 and an ELISA of 0.767.
Regarding “PCECIXXDSFVGKSSSEECERLCRKLGVTNCRVHCG [VEGF clone 25, phage clone, 5JI4 library, VEGF panning]”, in the assay with VEGF, the S/N is reported as 3.092 and the ELISA was 0.269.
For “PCECLMYGHHVGSASSEECERLCRKLGVTNCRVHCG [VEGF clone 19, phage clone, 5JI4 library, VEGF panning]”, in that order: 36.6559 and 3.409.
Taken in the same sequence, the figures for “PCECLMYRVXVGHSSSEACERLCRKLGVTNCRVHCG [VEGF clone 3, phage clone, 5JI4 library, VEGF panning]” were 42.6 and 4.34.
In the assay with VEGF, “PCECMFHGVPVGFSSSEECERLCRKLGVTNCRVHCG [VEGF clone 8, phage clone, 5JI4 library, VEGF panning]” yielded a S/N of 37.2 and an ELISA of 4.06.
Taken in the same sequence, the figures for “PCECPRWWSHDGGYSSEECERLCRKLGVTNCRVHCG [VEGF clone 11, phage clone, 5JI4 library, VEGF panning]” were 38.9 and 3.89.
For “PCECQFYGTMVGWSSSEECERLCRKLGVTNCRVHCG [VEGF clone 20, phage clone, 5JI4 library, VEGF panning]”, in that order: 37.3956 and 3.403.
For “PCECVVLDTVVGKASSEECERLCRKLGVTNCRVHCG [VEGF clone 17, phage clone, 5JI4 library, VEGF panning]”, in that order: 37.5957 and 3.534.
In the assay on VEGF, “PCECWFYDALVGWTSSEECERLCRKLGVTNCRVHCG [VEGF clone 7, phage clone, 5JI4 library, VEGF panning]” returned a S/N of 41.3 and an ELISA of 4.13.
Taken in the same sequence, the figures for “PCECWMYHTNVGHGSSEECERLCRKLGVTNCRVHCG [VEGF clone 21, phage clone, 5JI4 library, VEGF panning]” were 29.9279 and 3.322.
For “PCECYFETTHVGFASSEECERLCRKLGVTNCRVHCG [VEGF clone 18, phage clone, 5JI4 library, VEGF panning]”, in that order: 10.4498 and 3.438.
For “PCECYFQGVNVGESSSEECERLCRKLGVTNCRVHCG [VEGF clone 16, phage clone, 5JI4 library, VEGF panning]”, in that order: 40.618 and 3.615.
Regarding “PCECYFQXVKVGESSSEECERLCRKLGVTNCRVHCG [VEGF clone 6, phage clone, 5JI4 library, VEGF panning]”, in the assay on VEGF, the S/N was 32.5 and the ELISA is recorded as 4.23.
For “PCECYFSNTMVGHSSSEECERLCRNLGVTNCRVHCG [VEGF clone 5, phage clone, 5JI4 library, VEGF panning]”, in that order: 40.6 and 4.23.
Taken in the same sequence, the figures for “PCECYFYDIVVGFSSSEECERLCRKLGVTNCRVHCG [VEGF clone 1, phage clone, 5JI4 library, VEGF panning]” were 58.3 and 6.00.
For “PCECYIYNTGAGWGSSEECARLCRKLGVTNCRVHCG [VEGF clone 15, phage clone, 5JI4 library, VEGF panning]”, in that order: 30.6033 and 3.703.
With “PCECYLPKVMVGFSSSEECERLCRNLGVTNCRVHCG [VEGF clone 10, phage clone, 5JI4 library, VEGF panning]”, in the assay with VEGF, the S/N is on record as 12.4652 and the ELISA is 3.939.
Taken in the same sequence, the figures for “PCECYMSNVNVGESSSEECERLCRKLGVTNCRVHCG [VEGF clone 22, phage clone, 5JI4 library, VEGF panning]” were 29.6607 and 3.322.
